Experimental data: patent US10124004B2, “Pyrido[3,4-d]pyrimidine derivative and pharmaceutically acceptable salt thereof” (Teijin Pharma Limited, priority 2015, dated 2018)

How the values were obtained:
[1] = target: T1, CDK2/cyclin A2 (Homo sapiens, UniProt P24941); test: Human CDK2/cyclin A2 inhibitory activity (QS S Assist CDK2/Cyclin A2_FP Kit, IMAP fluorescence polarization); assay type: biochemical; conditions: Human CDK2/cyclin A2 inhibitory activity; read-out: CDK2 Activity symbol
T1 construct: purchased Carna Biosciences, Inc. QS S Assist CDK2/Cyclin A2_FP Kit
Outline: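 Kinase activity read as fluorescence polarization (485/535 nm) after phosphorylated fluorescent substrate binds IMAP reagent (30 min, RT, dark). Enzyme (2.5 ng/well) reacted 60 min at RT with ATP/substrate/metal in HEPES pH 7.4 buffer with Tween 20 and DTT; no-enzyme wells define 0% activity; IC50 by curve fit.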

[2] = target: T2, CDK4/cyclin D3 (Homo sapiens, UniProt P11802); test: Human CDK4/cyclin D3 inhibitory activity (QS S Assist CDK4/Cyclin D3_FP Kit, IMAP fluorescence polarization); assay type: biochemical; conditions: Human CDK4/cyclin D3 inhibitory activity; read-out: CDK4 Activity symbol
T2 construct: purchased Carna Biosciences, Inc. QS S Assist CDK4/Cyclin D3_FP Kit
T2 sequence (P11802 whole entry): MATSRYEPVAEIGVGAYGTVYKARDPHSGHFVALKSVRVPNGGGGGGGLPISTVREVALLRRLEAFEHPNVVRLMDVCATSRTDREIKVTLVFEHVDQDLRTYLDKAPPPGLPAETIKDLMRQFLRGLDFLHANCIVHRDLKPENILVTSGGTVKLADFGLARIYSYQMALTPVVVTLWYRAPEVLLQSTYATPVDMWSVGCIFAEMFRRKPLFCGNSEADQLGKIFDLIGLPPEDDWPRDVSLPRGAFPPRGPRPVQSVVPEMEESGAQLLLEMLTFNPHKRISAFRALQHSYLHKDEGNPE
T2 sequence (P30281 whole entry partner): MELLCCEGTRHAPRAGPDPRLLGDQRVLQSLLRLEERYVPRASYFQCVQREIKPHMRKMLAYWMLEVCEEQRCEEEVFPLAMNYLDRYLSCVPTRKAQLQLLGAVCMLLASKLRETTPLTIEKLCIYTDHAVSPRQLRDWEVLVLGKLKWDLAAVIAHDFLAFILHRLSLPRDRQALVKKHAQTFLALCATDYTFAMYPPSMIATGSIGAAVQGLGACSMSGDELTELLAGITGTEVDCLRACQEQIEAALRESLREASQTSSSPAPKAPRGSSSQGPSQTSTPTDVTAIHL
Outline: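 IMAP fluorescence polarization kit: CDK4/cyclin D3 at 12.5-25 ng/well with kit ATP/substrate/metal mix in 20 mM HEPES pH 7.4, 0.01% Tween20, 2 mM DTT, 45 min at room temperature. FP read at 485/535 nm after 30 min binding; IC50 from dose-response fit of percent inhibition versus enzyme and no-enzyme controls.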

| SMILES | IC50 [1] | IC50 [2] |
| --- | --- | --- |
| CO[C@H](C)c1cc2cnc(Nc3ccc(CN4CCOCC4=O)cn3)nc2c(NC(C)C)n1 [Compound 199] | ≥ 100 nM | 10 to 100 nM |
| CO[C@H](C)c1cc2cnc(Nc3ccc(CN4CCC(C(C)(C)O)CC4)cn3)nc2c(NC(C)C)n1 [Compound 200] | ≥ 100 nM | < 10 nM |
| CO[C@H](C)c1cc2cnc(Nc3ccc(N4CCC(O)CC4)nn3)nc2c(NC(C)C)n1 [Compound 201] | ≥ 100 nM | 10 to 100 nM |
| COCC(C)(C)Nc1nc([C@@H](C)O)cc2cnc(Nc3ccc(N4CCC(O)CC4)nn3)nc12 [Compound 202] | ≥ 100 nM | 10 to 100 nM |
| CC(C)Nc1nc(C(F)F)cc2cnc(Nc3ccc(C4=CC(=O)NCC4)cn3)nc12 [Compound 203] | 10 to 100 nM | < 10 nM |
| COCC(C)(C)Nc1nc([C@@H](C)O)cc2cnc(Nc3ccc(N4CCOCC4)cn3)nc12 [Compound 204] | ≥ 100 nM | < 10 nM |
| CC(C)Nc1nc(C(F)F)cc2cnc(Nc3ccc(CN4CCNCC4=O)cn3)nc12 [Compound 205] | 10 to 100 nM | < 10 nM |
| COCC(C)(C)Nc1nc([C@@H](C)O)cc2cnc(Nc3ccc(N4CCNCC4=O)cn3)nc12 [Compound 206] | ≥ 100 nM | < 10 nM |
| CO[C@H](C)c1cc2cnc(Nc3ccc(N4CCNCC4=O)cn3)nc2c(NC(C)C)n1 [Compound 207] | ≥ 100 nM | < 10 nM |
| COCC(C)(C)Nc1nc([C@@H](C)O)cc2cnc(Nc3ccc(OCCN(C)C)cn3)nc12 [Compound 208] | ≥ 100 nM | < 10 nM |
| CC(C)Nc1nc(C(F)F)cc2cnc(Nc3ccc(-c4cn[nH]c4)cn3)nc12 [Compound 209] | ≥ 100 nM | 10 to 100 nM |
| CC(C)Nc1nc(C(F)F)cc2cnc(Nc3ccc(-n4cccn4)cn3)nc12 [Compound 210] | ≥ 100 nM | 10 to 100 nM |
| CC(C)Nc1nc(C(F)F)cc2cnc(Nc3ccc(-n4cnnn4)cn3)nc12 [Compound 211] | 10 to 100 nM | 10 to 100 nM |
| COCC(C)(C)Nc1nc([C@@H](C)O)cc2cnc(Nc3ccc(N4CCNCC4)nn3)nc12 [Compound 212] | ≥ 100 nM | < 10 nM |
| CC(C)Nc1nc(C(F)F)cc2cnc(Nc3ccc(CN4CCNC4=O)cn3)nc12 [Compound 213] | 10 to 100 nM | < 10 nM |
| CO[C@H](C)c1cc2cnc(Nc3ccc(N4CCOCC4)cn3)nc2c(NC(C)C)n1 [Compound 214] | ≥ 100 nM | < 10 nM |
| COCC(C)(C)Nc1nc([C@@H](C)O)cc2cnc(Nc3ccc(C4CCNCC4)cn3)nc12 [Compound 215] | ≥ 100 nM | < 10 nM |
| COCC(C)(C)Nc1nc([C@@H](C)O)cc2cnc(Nc3ccc(N4CCOCC4)nn3)nc12 [Compound 216] | ≥ 100 nM | 10 to 100 nM |
| CC(C)Nc1nc(C(F)F)cc2cnc(Nc3ccc(C4CCNC(=O)C4)cn3)nc12 (centres unmarked) [Compound 218] | 10 to 100 nM | < 10 nM |
| CC(C)Nc1nc(C(F)F)cc2cnc(Nc3ccc(CN4CCCNC4=O)cn3)nc12 [Compound 219] | 10 to 100 nM | < 10 nM |
| COCC(C)(C)Nc1nc([C@@H](C)O)cc2cnc(Nc3ccc(CC(N)=O)cn3)nc12 [Compound 222] | ≥ 100 nM | 10 to 100 nM |
| CO[C@H](C)c1cc2cnc(Nc3ccc(CCO)cn3)nc2c(NC(C)C)n1 [Compound 223] | ≥ 100 nM | < 10 nM |
| CO[C@H](C)c1cc2cnc(Nc3ccc(C4CCN(C(C)=O)CC4)cn3)nc2c(NC(C)C)n1 [Compound 224] | ≥ 100 nM | < 10 nM |
| COCC(C)(C)Nc1nc([C@@H](C)O)cc2cnc(Nc3ccc(C4CCN(C(C)=O)CC4)cn3)nc12 [Compound 225] | ≥ 100 nM | < 10 nM |
| CC(C)Nc1nc(C(F)F)cc2cnc(Nc3ccc(N4CCCC(O)C4)nn3)nc12 (centres unmarked) [Compound 226] | 10 to 100 nM | < 10 nM |
| CO[C@H](C)c1cc2cnc(Nc3ccc(OCCN(C)C)cn3)nc2c(NC(C)C)n1 [Compound 227] | ≥ 100 nM | < 10 nM |

| SMILES | IC50 [1] | IC50 [2] |
| --- | --- | --- |
| COCC(C)(C)Nc1nc([C@@H](C)O)cc2cnc(Nc3ccc(CCO)cn3)nc12 [Compound 228] | ≥ 100 nM | 10 to 100 nM |
| CC(C)Nc1nc([C@@H](C)O)cc2cnc(Nc3ccc(CCCN4CCOCC4=O)cn3)nc12 [Compound 229] | ≥ 100 nM | < 10 nM |
| CO[C@H](C)c1cc2cnc(Nc3ccc(CC(N)=O)cn3)nc2c(NC(C)C)n1 [Compound 231] | ≥ 100 nM | 10 to 100 nM |
| CO[C@H](C)c1cc2cnc(Nc3ccc(C4CCNCC4)cn3)nc2c(NC(C)C)n1 [Compound 232] | ≥ 100 nM | < 10 nM |
| CC(C)Nc1nc([C@@H](C)O)cc2cnc(Nc3ccc(CN4CCOCC4)cn3)nc12 [Compound 233] | ≥ 100 nM | < 10 nM |
| CC(C)Nc1nc([C@@H](C)O)cc2cnc(Nc3ccc(CN4CCNC(=O)C4)cn3)nc12 [Compound 234] | ≥ 100 nM | < 10 nM |
| COCC(C)(C)Nc1nc([C@@H](C)O)cc2cnc(Nc3ccc(NCCO)nn3)nc12 [Compound 235] | ≥ 100 nM | 10 to 100 nM |
| CC(C)Nc1nc(C(F)F)cc2cnc(Nc3ccc(CN4CCC(C(=O)NS(C)(=O)=O)CC4)cn3)nc12 [Compound 236] | 10 to 100 nM | < 10 nM |
| CO[C@H](C)c1cc2cnc(Nc3ccc(CN4CCNCC4=O)cn3)nc2c(NC(C)C)n1 [Compound 237] | ≥ 100 nM | 10 to 100 nM |
| CC(C)Nc1nc([C@@H](C)O)c(Cl)c2cnc(Nc3ccc(CN4CCNCC4)cn3)nc12 [Compound 238] | ≥ 100 nM | < 10 nM |
| CCCN1CCN(Cc2ccc(Nc3ncc4cc([C@@H](C)OC)nc(NC(C)C)c4n3)nc2)CC1 [Compound 239] | ≥ 100 nM | < 10 nM |
| CCN1CCN(Cc2ccc(Nc3ncc4cc([C@@H](C)OC)nc(NC(C)C)c4n3)nc2)CC1 [Compound 240] | ≥ 100 nM | < 10 nM |
| COCCNCc1ccc(Nc2ncc3cc([C@@H](C)O)nc(NC(C)C)c3n2)nc1 [Compound 241] | ≥ 100 nM | < 10 nM |
| COCCNCc1ccc(Nc2ncc3cc([C@@H](C)O)nc(NC(C)(C)COC)c3n2)nc1 [Compound 242] | ≥ 100 nM | 10 to 100 nM |
| CCCN1CCN(Cc2ccc(Nc3ncc4cc([C@@H](C)O)nc(NC(C)(C)COC)c4n3)nc2)CC1 [Compound 243] | ≥ 100 nM | < 10 nM |
| CCN1CCN(Cc2ccc(Nc3ncc4cc([C@@H](C)O)nc(NC(C)(C)COC)c4n3)nc2)CC1 [Compound 244] | ≥ 100 nM | < 10 nM |
| CC(C)Nc1nc([C@@H](C)O)cc2cnc(Nc3ccc(OCCN(C)C)cn3)nc12 [Compound 245] | ≥ 100 nM | < 10 nM |
| CO[C@H](C)c1cc2cnc(Nc3ccc(CN4CCNCC4)nn3)nc2c(NC(C)C)n1 [Compound 246] | ≥ 100 nM | < 10 nM |
| CC(C)Nc1nc([C@@H](C)O)c(Cl)c2cnc(Nc3ccc(N4CCNCC4=O)cn3)nc12 [Compound 247] | ≥ 100 nM | < 10 nM |
| COCC(C)(C)Nc1nc([C@@H](C)O)cc2cnc(Nc3ccc(CN4CCNCC4=O)cn3)nc12 [Compound 248] | ≥ 100 nM | 10 to 100 nM |
| CO[C@H](C)c1cc2cnc(Nc3ccc(N4CCN(CCO)CC4)nn3)nc2c(NC(C)C)n1 [Compound 249] | ≥ 100 nM | < 10 nM |
| C[C@@H](O)c1cc2cnc(Nc3ccc(N4CCNCC4)nn3)nc2c(NC2CCOCC2)n1 [Compound 250] | ≥ 100 nM | < 10 nM |
| C[C@@H](O)c1cc2cnc(Nc3ccc(N4CCNCC4)nn3)nc2c(N[C@H]2CCOC2)n1 [Compound 251] | ≥ 100 nM | < 10 nM |
| C[C@@H](O)c1cc2cnc(Nc3ccc(N4CCNCC4)nn3)nc2c(N[C@@H]2CCOC2)n1 [Compound 252] | ≥ 100 nM | < 10 nM |
| C[C@@H](O)c1cc2cnc(Nc3ccc(N4CCNCC4)nn3)nc2c(N[C@H]2CCCOC2)n1 [Compound 253] | ≥ 100 nM | < 10 nM |
| C[C@@H](O)c1cc2cnc(Nc3ccc(N4CCNCC4)nn3)nc2c(N[C@@H]2CCCOC2)n1 [Compound 254] | ≥ 100 nM | < 10 nM |
